Test results as given in ChEMBL document CHEMBL5523764, “Discovery of NO Donor-Aurovertin Hybrids as Dual Ferroptosis and Apoptosis Inducers for Treating Triple Negative Breast Cancer” (J Med Chem, 2024).
pIC50: −log10 of the molar value. Activity calls are given as the source filed them. The calls are words filed in the database; no cut-off is given here.

Columns and labels:
[1] = Cytotoxicity against human MCF-10A cells assessed as reduction in cell viability incubated for 72 hrs by MTT assay; format: toxicity, cell-based
[2] = Selectivity index, ratio of IC50 for cytotoxicity against human MCF-10A cells to IC50 for antiproliferative activity against human MDA-MB-231 cells; format: toxicity, cell-based; conditions: MCF-10A cells versus MDA-MB-231 cells, read-out: Ratio IC50
[3] = tested on: MDA-MB-468; experiment: Antiproliferative activity against human MDA-MB-468 cells assessed as reduction in cell viability incubated for 72 hrs by MTT assay; format: functional, cell-based; conditions: MDA-MB-468, 72 h
[4] = tested on: HCC1937; experiment: Antiproliferative activity against human HCC1937 cells assessed as reduction in cell viability incubated for 72 hrs by MTT assay; format: functional, cell-based; conditions: HCC1937, 72 h
[5] = tested on: MCF7; experiment: Antiproliferative activity against human MCF7 cells assessed as reduction in cell viability incubated for 72 hrs by MTT assay; format: functional, cell-based; conditions: MCF7, 72 h
[6] = tested on: MDA-MB-231; experiment: Induction of apoptosis in human MDA-MB-231 cells assessed as late apoptotic cells at 0.25 uM by Annexin V-FITC staining based flow cytometric analysis (reference value: 0.02 %); format: functional
[7] = tested on: MDA-MB-231; experiment: Induction of apoptosis in human MDA-MB-231 cells assessed as necrotic cells at 0.25 uM by Annexin V-FITC staining based flow cytometric analysis (reference value: 7.98 %); format: functional
[8] = tested on: MDA-MB-231; experiment: Induction of apoptosis in human MDA-MB-231 cells assessed as viable cells at 0.5 uM by Annexin V-FITC staining based flow cytometric analysis (reference value: 91.03%); format: functional; conditions: read-out: Activity
[9] = tested on: MDA-MB-231; experiment: Induction of apoptosis in human MDA-MB-231 cells assessed as late apoptotic cells at 0.5 uM by Annexin V-FITC staining based flow cytometric analysis (reference value: 0.02 %); format: functional
[10] = tested on: MDA-MB-231; experiment: Induction of apoptosis in human MDA-MB-231 cells assessed as viable cells at 1 uM by Annexin V-FITC staining based flow cytometric analysis (reference value: 91.03%); format: functional; conditions: read-out: Activity
[11] = tested on: MDA-MB-231; experiment: Induction of apoptosis in human MDA-MB-231 cells assessed as necrotic cells at 1 uM by Annexin V-FITC staining based flow cytometric analysis (reference value: 7.98 %); format: functional
[12] = tested on: MDA-MB-231; experiment: Induction of apoptosis in human MDA-MB-231 cells assessed as upregulation of caspase-9 expression at 0.25 to 1 uM by Western blot analysis; format: functional, cell-based; conditions: dose 0.25-1 µM
[13] = tested on: MDA-MB-231; experiment: Induction of apoptosis in human MDA-MB-231 cells assessed as upregulation of PARP-1 expression at 0.25 to 1 uM by Western blot analysis; format: functional, cell-based; conditions: dose 0.25-1 µM
[14] = tested on: MDA-MB-231; experiment: Upregulation of Bax expression in human MDA-MB-231 cells at 0.25 to 1 uM by Western blot analysis; format: functional, cell-based; conditions: dose 0.25-1 µM
[15] = tested on: MDA-MB-231; experiment: Induction of lipid ROS accumulation in human MDA-MB-231 cells incubated for 24 hrs by BODIPY-C11 probe based flow cytometric analysis; format: functional, cell-based; conditions: dose 0.25-1 µM
[16] = tested on: Mitochondria; experiment: Induction of ROS accumulation in mitochondria of human MDA-MB-231 cells at 0.25 to 1 uM by MitoSOX probe based flow cytometric analysis; format: functional; conditions: dose 0.25-1 µM
[17] = tested on: MDA-MB-231; experiment: Induction of ferroptosis in human MDA-MB-231 cells assessed as decrease in GPX4 expression by Western blot analysis; format: functional, cell-based; conditions: dose 0.25-1 µM
[18] = tested on: MDA-MB-231; experiment: Antitumor activity against human MDA-MB-231 cells xenografted in nude mouse assessed as reduction in tumor size at 10 to 20 mg/kg, ip administered for 30 days; format: functional, organism-based; conditions: dose 10-20 mg/kg, time 30.0 day
[19] = tested on: MDA-MB-231; experiment: Antitumor activity against human MDA-MB-231 cells xenografted in nude mouse assessed as reduction in tumor weight at 20 mg/kg, ip administered for 30 days relative to control; format: functional; design: scale not given: the % may be the effect or the level left; conditions: time 30 day
[20] = tested on: MDA-MB-231; experiment: Induction of ferroptosis in human MDA-MB-231 cells xenografted in nude mouse assessed as reduction in GPX4 level at 10 to 20 mg/kg, ip administered for 30 days by immunohistochemistry analysis; format: functional, organism-based; conditions: dose 10-20 mg/kg, time 30.0 day
[21] = tested on: MDA-MB-231; experiment: Inhibition of cell adhesion in human MDA-MB-231 cells assessed as rounded form appearance of cells at 0.02 to 0.5 uM incubated for 24 hrs by microscopic analysis; format: functional, cell-based; conditions: dose 0.02-0.5 µM
[22] = tested on: 4T1; experiment: Inhibition of cell adhesion in mouse 4T1 cells assessed as rounded form appearance of cells at 0.02 to 0.5 uM incubated for 24 hrs by microscopic analysis; format: functional, cell-based; conditions: dose 0.02-0.5 µM
[23] = tested on: MDA-MB-231; experiment: Antiinvasive activity against human MDA-MB-231 cells assessed as reduction in cell invasion measured after 24 hrs by crystal violet staining based transwell invasion assay; format: functional; conditions: dose 0.02-0.5 µM
[24] = tested on: 4T1; experiment: Antiinvasive activity against mouse 4T1 cells assessed as reduction in cell invasion measured after 24 hrs by crystal violet staining based transwell invasion assay; format: functional; conditions: dose 0.02-0.5 µM
[25] = tested on: 4T1; experiment: Downregulation of phosphorylated mTOR protein level at Ser2448 residue in mouse 4T1 cells at 0.02 to 2.5 uM incubated for 24 hrs by Western blot analysis; format: functional, cell-based; conditions: dose 0.02-2.5 µM
[26] = Acute toxicity in female ICR mouse assessed as effect on body weight at <40 mg/kg, ip measured within 24 hrs; format: organism-based; conditions: in vivo
[27] = Acute toxicity in ip female ICR mouse assessed as lethal dose measured after 2 days; format: organism-based; conditions: in vivo, time 2 day
[28] = Acute toxicity in female ICR mouse assessed as liver pathological abnormalities at 50 mg/kg, ip measured after 2 days; format: organism-based; conditions: in vivo, 48 h, time 2 day
[29] = Acute toxicity in female ICR mouse assessed as kidney pathological abnormalities at 50 mg/kg, ip measured after 2 days; format: organism-based; conditions: in vivo, 48 h, time 2 day
[30] = Acute toxicity in female ICR mouse assessed as spleen pathological abnormalities at 50 mg/kg, ip measured after 2 days; format: organism-based; conditions: in vivo, 48 h, time 2 day

Structure (SMILES): CC[C@H]1O[C@@]2(C)[C@H](OC(C)=O)[C@@]1(C)O[C@@H](/C=C/C=C/C=C/c1oc(=O)cc(OC)c1C)[C@@H]2OC(=O)CCC(=O)OC/C=C/COc1no[n+]([O-])c1S(=O)(=O)c1ccccc1
- IC50 at 72 h [1]: > 50000 nM
- selectivity ratio [2]: > 79
- pIC50 [3]: 6.35
- pIC50 [4]: 6.06
- pIC50 [5]: < 4.30
- Activity [6]: 5.82%
- Activity [7]: 0.37%
- viability at 0.5 µM [8]: 75.3%
- Activity [9]: 8.01%
- viability at 1 µM [10]: 47%
- Activity [11]: 1.42%
- Activity [12]: Active
- Activity [13]: Active
- Activity [14]: Active
- Activity [15]: Dose-Dependent Effect
- Activity [16]: Active
- Activity [17]: Dose-Dependent Effect
- Activity [18]: Active
- Activity [19]: 91%
- Activity [20]: Active
- inhibition [21]: Active
- inhibition [22]: Active
- Activity [23]: Dose-Dependent Effect
- Activity [24]: Dose-Dependent Effect
- Activity [25]: Active
- Activity [26]: Non-Toxic
- LD50 at 48 h [27]: 103 mg/kg
- Activity [28]: Non-Toxic
- Activity [29]: Non-Toxic
- Activity [30]: Non-Toxic
